Test results reported in patent publication US5686495A, “Substituted hydrazinedicarboximidamides and methods of use thereof” (Cambridge NeuroScience, Inc., priority 1995, dated 1997).
Where a name gives a salt, the structure may show the parent alone. Read-outs that look alike come from different tables or passages of the source.

System: potassium-stimulated 45Ca uptake of synaptosomes
Experiment: Potassium-stimulated 45Ca uptake into synaptosomes
Type: cell-based, rat
Procedure: Several compounds were also tested to determine whether the Ca^2+ dependent and independent components of glutamate release are related to the blockage of ^45 Ca uptake. Calcium uptake is one step in the cascade of events which occur in neuronal cell death from ischemia. See Bassaclough and Leach, Current Patents Ltd., 2-27. The Ca-flux protocol is as follows. Rat brain synaptosomes were prepared according to Hajos, Brain Res. 93:485 (1975). Synaptosomes were suspended in low potassium "LK" buffer (containing 3 mM KCl) at 2 mg/ml. […] After 5 seconds, the ^45 Ca flux was stopped with 0.9 ml quench solution (LK+10 mM EGTA). The solution was filtered under vacuum and the filters washed with 15 ml of quench buffer. The effect of drug is expressed as % inhibition (or block) of control potassium-stimulated ^45 Ca influx. This method is an adaptation of the method disclosed by Nachsen and Blaustein, J. Physiol. 361:251-268 (1985).

[1] = Rattus norvegicus, read-out: Inhibition of 45Ca Uptake, % Inhibition @ 10 uM (SEM)
[2] = Rattus norvegicus, read-out: % Uptake vs. Control
[3] = Rattus norvegicus; read-out: Inhibition of 45Ca Uptake, IC50
[4] = 10 μM; potassium-stimulated uptake of calcium into synaptosomes

Row | Compound | inhibition at 10 µM [1] | activity at 10 µM [2] | also measured
1 | N=C(Nc1ccc2cccc3c2c1CC3)Nc1ccc2cccc3c2c1CC3 [N,N'-Bis (3-acenaphthyl)guanidine, N,N'-Bis (3-Acenaphthyl)Guanidine Hydrobromide] | 36% | – | IC50 (Rattus norvegicus, read-out: Inhibition of 45Ca Uptake, IC50): 11 µM
2 | N=C(NN1CCCc2ccccc21)NN1CCCc2ccccc21 [N,N'-Bis(1,2,3,4-tetrahydro-1-quinolinyl)-guanidine] | – | 87% | –
3 | N=C(NC1CCc2ccccc21)NC1CCc2ccccc21 (stereo not shown) [N,N'-Bis(indan-1-yl)-guanidine] | – | 88% | –
4 | CCc1cccc(N2CCN(c3cccc(CC)c3)C2=N)c1 [N,N'-Bis(m-ethylphenyl)-2-imino-imidazolidine] | – | 101% | –
5 | Cc1ccccc1N1CCCCN(c2ccccc2C)C1=N [N,N'-Bis(o-tolyl)-N,N'-butanyl(bridge)-guanidine] | – | 119% | –
6 | CC(C)(C)c1ccc(NC(=N)Nc2ccc(C(C)(C)C)cc2)cc1 [N,N'-Bis(p-tert.-butylphenyl) guanidine] | 47% | – | –
7 | CC(C)c1ccc(NC(=N)Nc2ccc(C(C)C)cc2)cc1 [N,N'-Di-(4-isopropylphenyl)guanidine] | 48% | – | IC50 [3]: 19 ± 7 µM
8 | CC(C)c1ccc(NC(=N)Nc2ccc3c4c(cccc24)CC3)cc1 [N-(3- and 5-Acenaphthyl)-N'-(4-isopropylphenyl)-guanidine.HCl] | 68% | – | IC50 [3]: 6.5 ± 1 µM
9 | N=C(Nc1cccc2ccccc12)Nc1ccc2c3c(cccc13)CC2 [N-(5-acenaphthyl)-N'-(1-naphthyl)guanidine] | 40 ± 6% | – | IC50 [3]: 16.2 ± 0.4 µM
10 | N=C(Nc1ccc2c3c(cccc13)CC2)NC12CC3CC(CC(C3)C1)C2 [N-(5-acenaphthyl)-N'-(adamant-1-yl)guanidine] | 47 ± 11% | – | IC50 [3]: 9.7 ± 3 µM
11 | CCc1cccc(N(C)C(=N)Nc2cccc3ccc(=O)oc23)c1 [N-(8-Aminocoumarinyl)-N'-(m-ethylphenyl)-N'-methyl-guanidine] | – | 151% | –
12 | N=C(Nc1cccc2ccccc12)NC12CC3CC(CC(C3)C1)C2 [N-(Adamantan-1-yl)-N' (α-naphthyl)guanidine] | 31% | – | –
13 | N=C(Nc1cccc2nsnc12)NC12CC3CC(CC(C3)C1)C2 [N-(Adamantan-1-yl)-N'-(4,5-benzo-2-thia-1,3-diazol-6-yl)guanidine] | – | – | % Uptake vs. Control [4]: 98%
14 | N=C(NC1C2CC3CC(C2)CC1C3)NC12CC3CC(CC(C3)C1)C2 (stereo not shown) [N-(Adamantan-1-yl)-N'-(adamantan-2-yl)guanidine] | 49% | – | –
15 | N=C(NC1CCCCC1)NN1CCCCC1 [N-(Cyclohexyl)-N'-(1-piperidinyl)-guanidine] | – | 108% | –
16 | CCOC(=O)c1cc2cccc(NC(=N)N(C)c3cccc(CC)c3)c2o1 [N-(m-Ethylphenyl)-N'-(2-carboethoxy-7-benzofuranyl)-N-methyl guanidine] | – | 71% | –
17 | N=C(Nc1cccc2ccccc12)NN1CCCCC1 [N-(α-Naphthyl)-N'-(1-piperidinyl)-guanidine] | – | 131% | –
18 | CCc1cccc(NC(=NC#N)Nc2cccc3ccccc23)c1 [N-(α-Naphthyl)-N'-(m-ethylphenyl)-N"-cyano-guanidine] | – | 95% | –
19 | N=C(NCC12CC3CC(CC(C3)C1)C2)NCC12CC3CC(CC(C3)C1)C2 [N-N'-Bis(1-Adamantanemethyl)-guanidine] | – | 111% | –
20 | N-(α-Naphthyl)-N'-(4-phenylpiperidinyl)-guanidine | – | – | % Uptake vs. Control [4]: 79%
